# Values of other authors as cited in patent US20260191834A1, “PHARMACEUTICAL COMBINATION FOR THE TREATMENT OF MULTIPLE MYELOMA, MONOCLONAL GAMMOPATHY OF UNDETERMINED SIGNIFICANCE, AND SMOLDERING MULTIPLE MYELOMA” (priority 2022, published 2026).
smiles,measurement,setting,value
"CC[C@H]1OC(=O)[C@H](C)[C@@H](O[C@H]2C[C@@](C)(OC)[C@@H](O)[C@H](C)O2)[C@H](C)[C@@H](O[C@@H]2O[C@H](C)C[C@H](N(C)C)[C@H]2O)[C@](C)(OC)C[C@@H](C)C(=O)[C@H](C)[C@@H](O)[C@]1(C)O [clarithromycin, Clarithromycin]",efficacy for treating multiple myeloma,as an add-on to chemotherapies,reported and confirmed
same,efficacy for Multiple Myeloma,given alone as a single treatment,no efficacy
